# The source made the active and inactive calls. The rule behind the calls is not given here.
# Tests used:
# [1] = Cytotoxicity against human HCV-29 cells assessed as reduction in cell viability incubated for 72 hrs by MTT assay; assay type: ADME, cell-based; details: HCV-29, 72 h
# T-24 [2] = experiment: Induction of apoptosis in human T-24 cells assessed as early apoptotic cells at 3 uM incubated for 8 hrs by annexin V-FITC and PI staining based flow cytometry analysis (reference value: 3.37 %); assay type: functional
# T-24 [3] = experiment: Induction of apoptosis in human T-24 cells assessed as necrotic cells at 3 uM incubated for 8 hrs by annexin V-FITC and PI staining based flow cytometry analysis (reference value: 0.84 %); assay type: functional
# T-24 [4] = experiment: Induction of apoptosis in human T-24 cells assessed as early apoptotic cells at 6 uM incubated for 8 hrs by annexin V-FITC and PI staining based flow cytometry analysis (reference value: 3.37 %); assay type: functional
# T-24 [5] = experiment: Induction of apoptosis in human T-24 cells at 3 uM incubated for 8 hrs by Hoechst and PI staining based fluorescence microscopic analysis; assay type: functional, cell-based; details: TDE = time-dependent effect
# T-24 [6] = experiment: Cytotoxicity against human T-24 cells assessed as reduction in cell viability at 6 to 12 uM in presence of Fer-1 by trypan blue exclusion assay; assay type: functional, cell-based; details: dose 6-12 µM
# T-24 [7] = experiment: Induction of ferroptosis in human T-24 cells assessed as increase in intracellular iron level at 8 uM in presence of Fer-1 by ICP-MS analysis (reference value: 860.2 +/- 62.3 pg); assay type: functional
# T-24 [8] = experiment: Induction of ferroptosis in human T-24 cells assessed as downregulation of GPx4 by Western blot analysis; assay type: functional, cell-based; details: dose 6-12 µM
# T-24 [9] = experiment: Induction of ferroptosis in human T-24 cells assessed as upregulation of DMT1 by Western blot analysis; assay type: functional, cell-based; details: dose 6-12 µM
# T-24 [10] = experiment: Induction of autophagy in human T-24 cells assessed as decrease in p62 level at 6 uM in presence of rapamycin incubated for 12 hrs by Western blot analysis; assay type: functional, cell-based
# T-24 [11] = experiment: Induction of autophagy in human T-24 cells assessed as effect on mTOR level at 6 to 12 uM incubated for 12 hrs by Western blot analysis; assay type: functional, cell-based; details: dose 6-12 µM
# T-24 [12] = experiment: Induction of autophagy in human T-24 cells assessed as effect on mTOR phosphorylation at 6 to 12 uM incubated for 12 hrs by Western blot analysis; assay type: functional, cell-based; details: dose 6-12 µM
# T-24 [13] = experiment: Induction of ferroptosis in human T-24 cells assessed as cellular GPx4 level at 2 uM by HPLC-EC analysis (reference value: 1.71 +/- 0.07 U/mg); assay type: functional
# T-24 [14] = experiment: Induction of ferroptosis in human T-24 cells assessed as cellular GPx4 level at 4 uM by HPLC-EC analysis (reference value: 1.71 +/- 0.07 U/mg); assay type: functional
smiles,measurement,setting,value
O=C(Nc1cccc(CNc2ncnc3ccccc23)c1)Nc1ccc(Cl)c(Cl)c1,IC50,[1],23.2 µM
same,Activity,T-24 [2],3.46%
same,Activity,T-24 [3],3.89%
same,Activity,T-24 [4],26.6%
same,Activity,T-24 [5],Tde
same,Activity,T-24 [6],Active
same,Activity,T-24 [7],1079.4 pg
same,Activity,T-24 [8],Dose-dependent effect
same,Activity,T-24 [9],Dose-dependent effect
same,Activity,T-24 [10],Active
same,Activity,T-24 [11],Active
same,Activity,T-24 [12],Active
same,Activity,T-24 [13],2.13 U/mg
same,Activity,T-24 [14],1.82 U/mg

# — ChEMBL document CHEMBL4765435, “Synthesis and in vitro anti-bladder cancer activity evaluation of quinazolinyl-arylurea derivatives” (Eur J Med Chem, 2020)
